What all share (type): in vitro ADME
One data set is described as follows: permeability (Papp). Particulars: not told.
A short description of the next data set: plasma stability (human).
A short description of data set [1]: Plasma protein binding (human). The method, then: Plasma Protein Binding Assay
Plasma protein binding (PPB) was determined using Rapid Equilibrium Dialysis chambers with 8 kDa cut-off inserts (Fisher Scientific UK Ltd, Leicestershire, UK). Rat (Sprague Dawley strain) plasma EDTA K2 (pooled, mixed sex, SeraLab, West Sussex, UK) was centrifuged (13,000 x g, 10 min) to remove precipitates before addition of compounds (initial concentration 5 µM). Concentrations were determined by liquid chromatography-tandem mass spectrometry (LC-MS-MS) (AB Sciex 3200 QTrap) after 4 h incubation at 37 °C with binding being calculated from the concentration of compound in each chamber. Assays were performed in replicate and the data expressed as mean ± s.e.
Cellular Stability of Compounds […]
Kaighn’s modification of Ham’s F12 medium (F12K). Cells were prepared for assay by washing 3 times with serum-free F12K. NR8383 Airway macrophages were grown in suspension culture in F12K, collected by centrifugation, washed in serum-free medium and aliquoted into test plates (1.4 x 10^6 cells/well). Both cell lines were treated with ADI compounds (100 nM) in serum -free F12K in a 5% CO 2 environment at 37 […]
n-Octanol (0.7 mL), pre -saturated with 10 mM PBS, pH7.4, was added to test compound (~1 mg) in a 2 mL HPLC vial followed by PBS (0. 7 mL), which had been pre -saturated with n -octanol. […]

As usually defined, the Papp is a coefficient for how fast a substance crosses the barrier. A higher Papp goes with ready permeation. By amount remaining is commonly meant the share of the starting amount still present when the sample was taken. High values mean greater stability, low ones a greater loss. The term fraction unbound denotes free concentration divided by total concentration. A lower fraction unbound goes with extensive binding.

On to `CC(C)[C@H](NC(=O)[C@H](C)NC(=O)[C@@H](NC(=O)c1ccccc1)C(C)(C)C)C(=O)C(=O)NCc1ccccc1` [Compound 1, N-{(S)-1-[(S)-1-((S)-1-benzylaminooxalyl-2-methyl-propylcarbamoyl)-ethylcarbamoyl]-2,2-dimethyl-propyl}-benzamide], for which the apparent permeability (Papp) in “permeability (Papp)” worked out at 6.2 ×10⁻⁶ cm/s. In addition, the amount remaining at 2 h in the data set “plasma stability (human)” was determined as 100%. Moreover, the fraction unbound at 4 h, 5 µM in data set [1] is 0.004.

Values taken from paper PMC9469500, “Targeting an Initiator Allergen Provides Durable and Expansive Protection against House Dust Mite Allergy” (ACS Pharmacology & Translational Science, 2022).
